Assay type in all cases: biochemical
The target of assay [1] is T1, Arabidopsis HPPD (SEQ ID: 53) (Arabidopsis thaliana, UniProt P93836).
T1 construct: His6 (N); made in house; host or cells: E. coli BL21 (DE3)
T1 sequence (P93836 1-445): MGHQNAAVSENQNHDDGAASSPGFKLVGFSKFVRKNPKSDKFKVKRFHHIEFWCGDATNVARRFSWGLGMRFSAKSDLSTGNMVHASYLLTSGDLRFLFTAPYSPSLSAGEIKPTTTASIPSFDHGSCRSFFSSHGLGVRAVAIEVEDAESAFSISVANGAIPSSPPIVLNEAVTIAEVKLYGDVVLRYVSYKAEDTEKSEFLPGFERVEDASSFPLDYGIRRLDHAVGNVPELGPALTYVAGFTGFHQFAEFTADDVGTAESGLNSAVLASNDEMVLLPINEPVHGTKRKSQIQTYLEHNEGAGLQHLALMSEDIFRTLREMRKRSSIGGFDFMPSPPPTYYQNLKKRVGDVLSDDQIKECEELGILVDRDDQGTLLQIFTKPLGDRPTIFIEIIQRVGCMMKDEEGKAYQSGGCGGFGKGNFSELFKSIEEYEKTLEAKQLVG
Put plainly: HPPD activity assay, Arabidopsis wild-type HPPD. The arrangement: key to Normalized tolerance index TI: tolerance index relative to Arabidopsis wild-type HPPD (= 1). As to conditions: for Normalized tolerance index TI: normalized on Arabidopsis wild-type HPPD; for tolerance index TI: not normalized. The protocol:
(§1) HPPD produces homogentisic acid and CO2 from 4-hydroxyphenylpyruvate (4-HPP) and O2. The activity assay for HPPD is based on the analysis of homogentisic acid by reversed phase HPLC.
(§2) The assay mixture can contain 150 mM potassium phosphate buffer pH 7.0, 50 mM L-ascorbic acid, 1 μM FeSO4 and 7 μg of purified enzyme in a total volume of 1 ml.
(§3) Inhibitors are dissolved in DMSO (dimethylsulfoxide) to a concentration of 20 mM or 0.5 mM, respectively. From this stock solution serial five-fold dilutions are prepared in DMSO, which are used in the assay. The respective inhibitor solution accounts for 1% of the assay volume. […] After a preincubation of 30 min the reaction is started by adding 4-HPP to a final concentration of 0.1 mM. The reaction is allowed to proceed for 120 min at room temperature. The reaction is stopped by addition of 100 μl of 4.5 M phosphoric acid.
(§4) Activities are normalized by setting the uninhibited enzyme activity to 100%. IC50 values are calculated using non-linear regression.
(§5) The assay mixture can contain 150 mM potassium phosphate buffer pH 7.0, 50 mM L-ascorbic acid, 100 μM Catalase (Sigma-Aldrich), 1 μM FeSO4 and 0.2 units of purified HPPD enzyme in a total volume of 505 μl. 1 unit is defined as the amount of enzyme that is required to produce 1 nmol of HGA per minute at 20° C.
(§6) Inhibitors are dissolved in DMSO (dimethylsulfoxide) to a concentration of 0.5 mM. From this stock solution serial five-fold dilutions are prepared in DMSO, which are used in the assay. The respective inhibitor solution accounts for 1% of the assay volume. […] Activities are normalized by setting the uninhibited enzyme activity to 100%. IC50 values are calculated using non-linear regression.
Using methods which are described in the above examples or well known in the art, purified, recombinant wildtype HPPD enzymes are characterized with respect to their kinetic properties and sensitivity towards HPPD inhibiting herbicides. Apparent michaelis constants (Km) and maximal reaction velocities (Vmax) are calculated by non-linear regression with the software GraphPad Prism 5 (GraphPad Software, La Jolla, USA) using a substrate inhibition model.
Field performance of the HPPD enzyme, which is used as a herbicide tolerance trait, may depend not only on its lack of sensitivity towards HPPD inhibiting herbicides but also on its activity. To assess the potential performance of a herbicide tolerance trait a tolerance index (TI) is calculated using the following formula: […]
Easy comparison and ranking of each trait is enabled by normalizing tolerance indexes on Arabidopsis wild-type HPPD.

Assay [2] deals with T2, Hordeum HPPD variant L353M, P321R, L320N (Hordeum vulgare, UniProt O48604, L320N/L353M/P321R).
T2 construct: His (N); made in house; host or cells: E. coli BL21 (DE3)
T2 sequence (O48604 whole entry R146V/R147D/R148G/A164G/L320N/P321R/L353M): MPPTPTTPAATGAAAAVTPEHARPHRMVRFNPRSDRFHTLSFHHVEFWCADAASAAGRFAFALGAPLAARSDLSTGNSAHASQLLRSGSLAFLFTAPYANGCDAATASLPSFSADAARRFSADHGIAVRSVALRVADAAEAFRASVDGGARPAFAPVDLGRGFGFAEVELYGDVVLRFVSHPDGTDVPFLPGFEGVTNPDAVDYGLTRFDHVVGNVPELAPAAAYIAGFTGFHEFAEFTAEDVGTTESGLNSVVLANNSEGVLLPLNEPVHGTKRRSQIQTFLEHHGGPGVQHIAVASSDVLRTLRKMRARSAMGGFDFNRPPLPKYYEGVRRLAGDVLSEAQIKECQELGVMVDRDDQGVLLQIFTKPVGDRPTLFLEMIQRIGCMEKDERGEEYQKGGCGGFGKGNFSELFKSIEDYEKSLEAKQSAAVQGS
The experiment in a line: HPPD activity assay, Hordeum HPPD mutant L353M, P321R, L320N. As to conditions: normalized on Hordeum wild-type HPPD. The protocol: as §1, §2, §3, §4, §5, §6
(§7) Purified, mutant HPPD enzymes are obtained by the methods described above. Dose response and kinetic measurements are carried out using the described HPPD activity assay. Apparent michaelis constants (Km) and maximal reaction velocities (Vmax) are calculated by non-linear regression with the software GraphPad Prism 5 (GraphPad Software, La Jolla, USA) using a substrate inhibition model.
(§8) Field performance of the optimized HPPD enzyme, which is used as a herbicide tolerance trait may depend not only on its lack of sensitivity towards HPPD inhibiting herbicides but also on its activity. To assess the potential performance of a herbicide tolerance trait a tolerance index (TI) is calculated using the following formula: […]
(§9) Easy comparison and ranking of each trait is enabled by normalizing tolerance indexes on Arabidopsis or Hordeum wild-type HPPD.

Assay [3] addresses T3, Hordeum HPPD variant L320Q (Hordeum vulgare, UniProt O48604, A164G/L320Q/R146V/R147D/R148G).
T3 construct: His (N); made in house; host or cells: E. coli BL21 (DE3)
Put plainly: HPPD activity assay, Hordeum HPPD mutant L320Q. Conditions: normalized on Hordeum wild-type HPPD. The protocol:
as §1, §2, §3, §4, §5, §6, §7, §8, §9

The target of assay [4] is T4, Hordeum HPPD variant L320H (Hordeum vulgare, UniProt O48604, A164G/L320H/R146V/R147D/R148G).
T4 construct: His (N); made in house; host or cells: E. coli BL21 (DE3)
T4 sequence (O48604 whole entry R146V/R147D/R148G/A164G/L320H): as the sequence (O48604 whole entry R146V/R147D/R148G/A164G/L320N/P321R/L353M) above, with N320H, R321P, M353L counted along it
Put plainly: HPPD activity assay, Hordeum HPPD mutant L320H. Conditions: normalized on Hordeum wild-type HPPD. The protocol: as §1, §2, §3, §4, §5
Inhibitors are dissolved in DMSO (dimethylsulfoxide) to a concentration of 0.5 mM. […] IC50 values are calculated using non-linear regression.
Purified, mutant HPPD enzymes are obtained by the methods described above. […] Apparent michaelis constants (Km) and maximal reaction velocities (Vmax) are calculated by non-linear regression with the software GraphPad Prism 5 (GraphPad Software, La Jolla, USA) using a substrate inhibition model.
as §8

The mark [5] stands for this setting: Arabidopsis HPPD Wildtype, Table 15.

This is an account of results in patent US20140357487A1, “PLANTS HAVING INCREASED TOLERANCE TO HERBICIDES” (BASF SE, priority 2011, published 2014).

T3 sequence (O48604 whole entry R146V/R147D/R148G/A164G/L320Q): as the sequence (O48604 whole entry R146V/R147D/R148G/A164G/L320N/P321R/L353M) above, with N320Q, R321P, M353L counted along it

`CC1=NOC(c2c(Cl)ccc(C3=C(O)c4ncccc4C(C)(C)S3(=O)=O)c2Cl)C1` (stereo not shown) [Inhibitor 1, 7-[2,4-dichloro-3-(3-methyl-4,5-dihydroisoxazol-5-yl)phenyl]-5,5-dimethyl-6,6-dioxo-thiopyrano[4,3-b]pyridin-8-ol]: the affinity in assay [1], expressed as Ki, was 4.1 nM. The “Normalized tolerance index TI” value came out at 1 in assay [1] (setting [5]); 1 in assay [1] (Arabidopsis HPPD, Table 12); 2.1 in assay [2]; 2.1 in assay [3]; 8.5 in assay [4]. The “tolerance index TI” value in assay [1] (Arabidopsis HPPD) is on record as 4E−3.

`COCCOCc1c(Cl)ccc(C2=C(O)c3ncccc3C(C)(C)S2(=O)=O)c1Cl` [Inhibitor 3, 7-[2,4-dichloro-3-(2-methoxyethoxymethyl)phenyl]-5,5-dimethyl-6,6-dioxo-thiopyrano[4,3-b]pyridin-8-ol]: the “Normalized tolerance index TI” value was determined as 1 in assay [1] (setting [5]); 1 in assay [1] (Arabidopsis HPPD, Table 12); 1.9 in assay [2]; 2.4 in assay [3]; 7.4 in assay [4].

The compound `CC1(C)c2cccnc2C(O)=C(c2ccc(Cl)nc2Cl)S1(=O)=O` [Inhibitor 2, 7-(2,6-dichloro-3-pyridyl)-5,5-dimethyl-6,6-dioxo-thiopyrano[4,3-b]pyridin-8-ol] showed a Ki in assay [1] of 4.2 nM. Moreover, the “Normalized tolerance index TI” value in assay [1] (setting [5]) came out at 1; in assay [1] (Arabidopsis HPPD, Table 12) it was 1; in assay [2] it was 1.4; in assay [3], 0.7; in assay [4], 2.7. Besides, the “tolerance index TI” value in assay [1] (Arabidopsis HPPD) was determined as 4E−3.
